Patent publication US11447486B2, “2-amino-benzimidazole derivatives and their use as 5-lipoxygenase and/or prostaglandin E synthase inhibitors” (INSTITUT PASTEUR KOREA, priority 2014, dated 2022)

Key:
[1] = target: T1, Human 5-lipoxygenase (5-LOX) (Homo sapiens, UniProt P09917); assay: 5-LOX enzyme activity, LTB4 measurement by ELISA; type: biochemical; details: ELISA method; read-out: 5LO (IC50)
T1 construct: purchased Cayman 60402; host or cells: insect cells
T1 sequence (P09917 1-674): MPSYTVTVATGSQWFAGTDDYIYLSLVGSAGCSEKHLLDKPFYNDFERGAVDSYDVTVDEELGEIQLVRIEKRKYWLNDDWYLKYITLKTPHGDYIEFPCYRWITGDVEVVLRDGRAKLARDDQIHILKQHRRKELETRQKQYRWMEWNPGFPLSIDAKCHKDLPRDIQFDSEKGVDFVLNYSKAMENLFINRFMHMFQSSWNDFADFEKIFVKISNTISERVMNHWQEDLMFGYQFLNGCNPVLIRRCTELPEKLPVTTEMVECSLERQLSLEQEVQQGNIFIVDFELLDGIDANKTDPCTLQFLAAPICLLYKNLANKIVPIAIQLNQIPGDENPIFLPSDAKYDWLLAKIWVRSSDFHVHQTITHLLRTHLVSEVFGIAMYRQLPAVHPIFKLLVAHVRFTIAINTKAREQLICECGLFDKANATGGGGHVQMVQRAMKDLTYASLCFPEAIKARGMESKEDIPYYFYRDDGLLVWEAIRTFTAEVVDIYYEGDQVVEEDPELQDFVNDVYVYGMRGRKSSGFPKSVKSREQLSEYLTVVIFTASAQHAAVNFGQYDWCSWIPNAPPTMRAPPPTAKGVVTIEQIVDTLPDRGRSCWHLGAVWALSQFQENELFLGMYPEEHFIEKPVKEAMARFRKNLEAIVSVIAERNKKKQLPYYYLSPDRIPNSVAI
Procedure: The activity of compounds against 5-LOX were determined by measuring LTB4 (leukotriene B4) levels and/or by a fluorescence method. Both approaches are outlined in more detail below;
LTB4 Measurement by ELISA:
Human 5-lipoxygenase (5-LOX) (Cayman, Cat #60402) produced in insect cells was pre-incubated with compounds for 5 min at RT in incubation buffer (50 mM Tris-Cl, pH 7.4, 2 mM CaCl2, 0.1 mM ATP, 2% DMSO). Compounds were tested in dose reponse from 0.5 nM to 10 uM. The enzymatic reaction was started by adding arachidonic acid to a final concentration of 3 uM. After 5 min of incubation at 25° C., the reaction was stopped by adding H2O2 to a final concentration of 1 mM. LTB4 levels were quantified using a LTB4 EIA kit (Cayman, Cat #520111) as instructed.

[2] = target: T2, human 5-LOX (Homo sapiens, UniProt P09917); assay: 5-LOX enzyme activity, fluorescence method (5-HPETE, H2DCFDA); type: biochemical; details: read-out: 5-LO (IC50)
T2 construct: purchased Cayman 60402; host or cells: insect cells (lysate)
T2 sequence (P09917 1-674): T1 sequence (P09917 1-674)
Procedure, shortened: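 Fluorescence-based read-out, run entirely at room temperature. Enzyme mixture was exposed to a dose range of compound from 0.5 nM to 10 uM for 5 min before ATP and arachidonic acid were added to final levels of 100 uM and 3 uM.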

[3] = test system: Rat basophilic leukemia (RBL) cells; assay: LTB4 secretion assay in RBL (rat basophilic leukemia cells); type: cell-based; details: Rattus norvegicus, RBL
Procedure, shortened: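 LTB4 released into supernatant was measured by EIA after 10 min at 37 °C with arachidonic acid (2.5 uM final) and calcium ionophore A23187 (5 uM final). Before stimulation, cells plated 2×10^4/well overnight received compound doses (5 nM to 100 uM) for 15 min in 0.5% FBS medium.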

[4] = test system: Rat whole blood (RWB); assay: LTB4 secretion assay in RWB (rat whole blood); type: cell-based; details: Rattus norvegicus
Procedure, shortened: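 LTB4 release was measured by EIA in supernatants of pooled, sodium heparin rat blood (male Sprague Dawley, 6-9 weeks) diluted 1:1 with RPMI. Compounds (2.5 nM to 50 uM) were added 15 min before A23187 (10 uM final), with 10 min stimulation at 37 °C before ice-cold PBS quench.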

[5] = target: T3, Human recombinant cyclooxygenase-2 (Homo sapiens, UniProt P35354); assay: COX-2 inhibition assay (EIA); type: biochemical; details: for inhibition at 10 µM: COX-2, 10 uM compound; for inhibitory effect on cyclooxygenase-2 (COX-2): tested at 10 uM
T3 construct: host or cells: insect Sf21 cells
T3 sequence (P35354 18-604): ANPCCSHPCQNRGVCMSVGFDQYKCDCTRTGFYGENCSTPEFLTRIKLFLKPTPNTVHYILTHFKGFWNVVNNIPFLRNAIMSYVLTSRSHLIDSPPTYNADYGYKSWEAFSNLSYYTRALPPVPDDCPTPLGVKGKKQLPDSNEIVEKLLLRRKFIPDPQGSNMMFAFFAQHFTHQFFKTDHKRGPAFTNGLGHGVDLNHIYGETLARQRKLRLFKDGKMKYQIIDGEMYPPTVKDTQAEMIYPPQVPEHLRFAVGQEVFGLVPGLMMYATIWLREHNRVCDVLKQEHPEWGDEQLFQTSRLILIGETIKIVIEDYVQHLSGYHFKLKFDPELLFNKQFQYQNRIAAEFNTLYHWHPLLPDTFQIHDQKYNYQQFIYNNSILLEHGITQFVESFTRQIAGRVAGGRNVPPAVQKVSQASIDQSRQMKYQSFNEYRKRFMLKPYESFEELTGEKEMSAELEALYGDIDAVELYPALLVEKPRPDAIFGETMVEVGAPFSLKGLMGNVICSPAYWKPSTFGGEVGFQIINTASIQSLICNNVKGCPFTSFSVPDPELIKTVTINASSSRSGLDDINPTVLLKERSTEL
Procedure: Human recombinant cyclooxygenase-2 expressed in insect Sf21 cells was used. The testing compounds and reference compound (Rofecoxib) were dissolved in DMSO (Sigma, USA) and tested at 10 uM. Test samples were pre-incubated with 0.11 U enzyme in 100 mM modified Tris-HCl buffer pH 7.7 for 15 minutes at 37° C. The reactions were initiated by addition of 0.3 μM arachidonic acid for another 5-minute incubation period, then terminated by further addition of 1 N HCl. An aliquot was then combined with the EIA kit for spectrophotometric determination of the quantity of PGE2 formed. Inhibition % was determined by compared with relative amounts of PGE2 induced by arachidonic acid.

[6] = test system: HeLa S3 cells; assay: PGE2 inhibition assay (HTRF) in TNF-α stimulated HeLa S3 cells; type: cell-based; details: Homo sapiens; PGE2, 10 uM compound, HeLa S3 stimulated with TNF-α
Procedure: Human epitheloid cervix carcinoma HeLa S3 cells (2×10^6cells/ml) were seeded with modified F-12K buffer medium pH 7.4 in tissue culture plate and incubated for overnight at 37° C. and 5% CO2. Then medium was changed into new medium contained 10 uM testing compounds or 0.1% DMSO and incubated overnight. After incubation, cells were stimulated with 30 nM TNF-α (Tumor necrosis factor-α) for 16 h. For determination of PGE2, the supernatant was measured by PGE2 HTRF (Homogeneous Time Resolved Fluorescence) assay kit Inhibition of PGE2 by compounds is calculated as a percentage of activity in the presence of drug versus the activity in the stimulator TNF-α.

[7] = test system: Brown Norway rats; assay: OVA-induced airway inflammation model in Brown Norway rats; type: in vivo, rat; details: 25, 50, 100 mg/kg p.o. BID, Day 19-21
From the text: The objective of this study is to determine the efficacy of compounds in the lungs of ovalbumin (OVA) induced in Brown Norway rats. As with most models of induced allergic asthma, animals are systemically sensitized to specific antigens and then, after a period of time, challenged with the same allergen administered via the airway. Ovalbumin had been used as the standard allergen to sensitize and challenge animals in this study.
Thirty (30) male Brown Norway rats were randomized into 5 groups on the basis of body weight. For sensitization, 1% OVA in PBS solution was mixed with alum solution (with volume ratio of 1:9). All rats in groups 1-5 were sensitized by i.p injection (1 mL/rat) of 1% OVA-alum sensitization solution on day 1, 2 and 3. At day 21, rats in groups 1-5 were challenged with 1% OVA in PBS solution with aerosolizing dosing system for 20 min.
Test compounds were administered by p.o. from days 19-21 of the study as per schedule below:
Group 1: sensitized-vehicle,
Group 2: reference drug dexamethasone, 0.3 mg/kg, p.o., Day 19-21, BID,
Group 3: compound 211, 25 mg/kg, p.o., Day 19-21, BID,
Group 4: compound 211, 50 mg/kg, p.o., Day 19-21, BID,
Group 5: compound 211, 100 mg/kg, p.o., Day 19-21, BID,
On day 22, bronchoalveolar lavage and lung tissues were harvested. Total cell number and differential cell counts in BALF, leukotriene B4 (LTB4) in BALF and lung tissue, histopathology of lung by H&E staining will be evaluated.

Row | IC50 [1] [µM] | IC50 [2] [µM] | EC50 [3] [µM] | EC50 [4] [µM] | inhibition at 10 µM [5] [%] | inhibitory effect on cyclooxygenase-2 (COX-2) [5] | melting point [°C] | Compound | inhibition at 10 µM [6] [%] | LTB4 in BALF and Lung [7] | increase of inflammatory cells including total cell and eosinophils ([7]; BALF) | inflammation cell infiltration ([7]; lung histopathology)
1 | < 1 | < 1 | < 10 | < 10 |  |  |  | Nc1ccc2[nH]c(NCc3ccc(Oc4ccc(Cl)cc4)cn3)nc2c1 [Compound 14] |  |  |  | 
2 |  | < 1 | < 10 |  | < 1 | do not have an inhibitory effect | > 137.5 | CC(C)Nc1ccc2[nH]c(NCc3ccc(Oc4ccccc4)cc3)nc2c1 [Compound 95] | > 70 |  |  | 
3 |  | < 1 | < 10 | 10 to 20 | < 1 | do not have an inhibitory effect | > 200 | Nc1ccc2[nH]c(NCc3ccc(-c4ccccc4)cc3)nc2c1 [Compound 90] | > 70 |  |  | 

Continued, molecule first:

Row | Compound | IC50 [1] [µM] | IC50 [2] [µM] | EC50 [3] [µM] | EC50 [4] [µM] | inhibition at 10 µM [5] [%] | inhibitory effect on cyclooxygenase-2 (COX-2) [5] | melting point [°C] | inhibition at 10 µM [6] [%] | LTB4 in BALF and Lung [7] | increase of inflammatory cells including total cell and eosinophils ([7]; BALF) | inflammation cell infiltration ([7]; lung histopathology)
4 | Nc1ccc2nc(N)n(CCOc3ccc(OC(F)(F)F)cc3)c2c1 [Compound 48] | 1 to 20 | < 1 | < 10 | < 10 |  |  |  |  |  |  | 
5 | Cn1c(NCc2ccc(Oc3ccc(Cl)cn3)cc2)nc2ccc(NC3COC3)cc21 [Compound 211] |  | < 1 | < 10 | < 10 |  |  |  | 40 to 70 | reduced | significantly reduced | significantly reduced
6 | Nc1ccc2c(c1)nc(N)n2CCOc1ccc(OC(F)(F)F)cc1 [Compound 49] | 1 to 20 | > 10 | < 10 | 10 to 20 |  |  |  |  |  |  | 
